Data as given in patent publication US12479825B2, “Melanocortin subtype-2 receptor (MC2R) antagonists and uses thereof” (Crinetics Pharmaceuticals, Inc., priority 2019, dated 2025).

Biological target: T1, hMC2 receptor (Homo sapiens, UniProt Q01718)
T1 construct: host or cells: CRE-bla-CHO-K1 cells, crude membrane fraction
Assay: hMC2 membrane binding assay ([125I]ACTH (1-39) Tyr23, SPA)
Conditions: crude hMC2R membranes from CRE-bla-CHO-K1 cells expressing hMC2 receptor and hMRAP; 0.2 nM [125I]ACTH (1-39) Tyr23; 1.5 hours at room temperature; read-out: MC2R binding potency
Protocol: Crude membrane fractions are prepared from CRE-bla-CHO-K1 cells stably expressing hMC2 receptor and hMRAP accessory protein (Thermo Fisher). The cells are grown to 85-100% confluence on standard tissue culture dishes in GlutaMax DMEM growth media (Gibco) with following additives: 10% dialyzed FBS (Gemini), 0.1 mM NEAA (Gibco), 25 mM HEPES (Gibco), 5 μg/mL blasticidin (Goldbio), 100 μg/mL zeocin (Invitrogen), 600 μg/mL hygromycin (Goldbio). To prepare membranes, cells are scraped and collected in 1× Dulbecco's phosphate buffered saline (Corning) and then pelleted at 1000 RPM's. The cell pellet is reconstituted in membrane preparation buffer (20 mM HEPES, 6 mM MgCl2 and 1 mM EGTA, protease inhibitor tablets (Pierce) adjusted to pH 7.4), homogenized using a dounce homogenizer, and the resulting membrane fraction is pelleted by centrifugation at 12,000 RPM's. The membrane pellet is resuspended in membrane preparation buffer, snap freezed and stored at −80° C. for later use.
The hMC2 membrane binding assay utilizes the following components: radiolabel [^125I]ACTH (1-39) Tyr23 (PerkinElmer), wheat germ agglutinin coated PVT SPA beads (PerkinElmer), crude hMC2R membranes, and compounds. Briefly hMC2R membranes are incubated with SPA beads in binding assay buffer (50 mM HEPES, 5 mM MgCl2, 1 mM CaCl2, 0.2% BSA, protease inhibitor tablets (Pierce) adjusted to pH7.4) prior to assay initiation. A dose response of compound (the final concentration of compound is typically 0-10,000 nM), SPA membranes, and [^125I]ACTH (1-39) Tyr23 at a final concentration of 0.2 nM is plated in a 96-well assay plate and allowed to incubate 1.5 hours at room temperature. Assay plates are read using a Top Count NXT and Ki values for compounds are determined using a GraphPad Prism 6 non-linear regression analysis.

T1 sequence (Q01718 whole entry): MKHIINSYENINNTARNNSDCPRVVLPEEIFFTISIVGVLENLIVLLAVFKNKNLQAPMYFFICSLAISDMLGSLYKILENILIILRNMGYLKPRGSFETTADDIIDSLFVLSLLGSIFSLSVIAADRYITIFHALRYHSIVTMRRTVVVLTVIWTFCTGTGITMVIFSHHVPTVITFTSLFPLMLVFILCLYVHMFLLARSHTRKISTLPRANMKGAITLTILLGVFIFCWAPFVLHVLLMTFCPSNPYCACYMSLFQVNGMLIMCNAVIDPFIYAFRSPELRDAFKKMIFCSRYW
T1 sequence (Q8TCY5 whole entry partner): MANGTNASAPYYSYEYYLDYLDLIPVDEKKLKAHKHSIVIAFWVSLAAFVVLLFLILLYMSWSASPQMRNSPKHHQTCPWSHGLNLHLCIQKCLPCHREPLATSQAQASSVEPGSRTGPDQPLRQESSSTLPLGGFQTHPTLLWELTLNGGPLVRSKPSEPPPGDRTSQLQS

Row | Ki | SMILES
1 | < 0.01 µM | CCOc1ccc(C(=O)N2CCN(c3ccc(-c4cccnc4OCC)nc3O[C@@H](C)CN)[C@H](CC)C2)c(C(F)(F)F)n1 [1-22, (2S)-2-({2′-ethoxy-5-[(2R)-4-[6-ethoxy-2-(trifluoromethyl)pyridine-3-carbonyl]-2-ethylpiperazin-1-yl]-[2,3′-bipyridin]-6-yl}oxy)propan-1-amine]
2 | < 0.01 µM | CCOc1ncccc1-c1ccc(N2CCN(C(=O)N3CCc4cccc(C#N)c43)C[C@H]2CC)c(OCCNC)n1 [1-23, 1-[(3R)-4-{2′-ethoxy-6-[2-(methylamino)ethoxy]-[2,3′-bipyridin]-5-yl}-3-ethylpiperazine-1-carbonyl]-2,3-dihydro-1H-indole-7-carbonitrile]
3 | < 0.01 µM | CCOc1ncccc1-c1ccc(N2CCN(C(=O)N3CCc4cccc(C#N)c43)C[C@H]2CC)c(OCCN)n1 [1-24, 1-[(3R)-4-[6-(2-aminoethoxy)-2′-ethoxy-[2,3′-bipyridin]-5-yl]-3-ethylpiperazine-1-carbonyl]-2,3-dihydro-1H-indole-7-carbonitrile]
4 | < 0.01 µM | CCOc1ncccc1-c1ccc(N2CCN(C(=O)N3CCc4cc(Cl)cc(C#N)c43)C[C@H]2CC)c(OCCN)n1 [1-25, 1-[(3R)-4-[6-(2-aminoethoxy)-2′-ethoxy-[2,3′-bipyridin]-5-yl]-3-ethylpiperazine-1-carbonyl]-5-chloro-2,3-dihydro-1H-indole-7-carbonitrile]
5 | < 0.01 µM | CCOc1ncccc1-c1ccc(N2CCN(C(=O)N3CCc4cc(Cl)cc(C#N)c43)C[C@H]2CC)c(OCCNC)n1 [1-26, 5-chloro-1-[(3R)-4-{2′-ethoxy-6-[2-(methylamino)ethoxy]-[2,3′-bipyridin]-5-yl}-3-ethylpiperazine-1-carbonyl]-2,3-dihydro-1H-indole-7-carbonitrile]
6 | < 0.01 µM | CCOc1ncccc1-c1ccc(N2CCN(C(=O)c3ccc(F)cc3C(F)(F)F)C[C@H]2CC)c(OCCNC)n1 [1-27, [2-({2′-ethoxy-5-[(2R)-2-ethyl-4-[4-fluoro-2-(trifluoromethyl)benzoyl]piperazin-1-yl]-[2,3′-bipyridin]-6-yl}oxy)ethyl](methyl)amine]
7 | < 0.01 µM | CCOc1ncccc1-c1ccc(N2CCN(C(=O)c3ccc(Cl)cc3Cl)C[C@H]2CC)c(OCCNC)n1 [1-28, [2-({5-[(2R)-4-(2,4-dichlorobenzoyl)-2-ethylpiperazin-1-yl]-2′-ethoxy-[2,3′-bipyridin]-6-yl}oxy)ethyl](methyl)amine]
8 | < 0.01 µM | CCOc1ncccc1-c1ccc(N2CCN(C(=O)c3ccc(F)cc3Cl)C[C@H]2CC)c(OCCNC)n1 [1-29, [2-({5-[(2R)-4-(2-chloro-4-fluorobenzoyl)-2-ethylpiperazin-1-yl]-2′-ethoxy-[2,3′-bipyridin]-6-yl}oxy)ethyl](methyl)amine]
9 | < 0.01 µM | CCOc1ncccc1-c1ccc(N2CCN(C(=O)c3ccc(OC)nc3C(F)(F)F)C[C@H]2CC)c(OCCNC)n1 [1-30, [2-({2′-ethoxy-5-[(2R)-2-ethyl-4-[6-methoxy-2-(trifluoromethyl)pyridine-3-carbonyl]piperazin-1-yl]-[2,3′-bipyridin]-6-yl}oxy)ethyl](methyl)amine]
10 | < 0.01 µM | CCOc1ncccc1-c1ccc(C2CCN(c3ccc(C(F)(F)F)cc3C#N)CC2)c(OCCNC)n1 [3-1, 2-(4-(2′-ethoxy-6-(2-(methylamino)ethoxy)-[2,3′-bipyridin]-5-yl)piperidin-1-yl)-5-(trifluoromethyl)benzonitrile]
11 | < 0.01 µM | CCOc1ncccc1-c1ccc(C2CCN(c3ccc(C(F)(F)F)nc3C#N)CC2)c(OCCNC)n1 [3-2, 3-(4-{2′-ethoxy-6-[2-(methylamino)ethoxy]-[2,3′-bipyridin]-5-yl}piperidin-1-yl)-6-(trifluoromethyl)pyridine-2-carbonitrile]
12 | 0.01 to 0.1 µM | CCOc1ncccc1-c1ccc(N2CCN(C(=O)c3ccc(F)cc3Cl)C[C@H]2CC)c(-c2nnc(CN)[nH]2)n1 [4-2, 1-(5-{5-[(2R)-4-(2-chloro-4-fluorobenzoyl)-2-ethylpiperazin-1-yl]-2′-ethoxy-[2,3′-bipyridin]-6-yl}-4H-1,2,4-triazol-3-yl)methanamine]
13 | 0.1 to 1 µM | CCOc1ncccc1-c1ccc(N2CCN(C(=O)c3ccc(F)cc3Cl)C[C@H]2CC)c(-c2nnc(N)[nH]2)n1 [4-3, (R)-(4-(6-(5-amino-4H-1,2,4-triazol-3-yl)-2′-ethoxy-[2,3′-bipyridin]-5-yl)-3-ethylpiperazin-1-yl)(2-chloro-4-fluorophenyl)methanone]
